Assay results published in PubChem BioAssay (NCI).
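Results reflect a 48-hour exposure of cells in 96-well plates to compound at five concentrations. Abbreviation: GI50, concentration required for 50% inhibition of growth. The concentration for full growth arrest is given as TGI.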

Key:
Assay in all cases: inhibition of tumour cell growth, NCI panel, 48 h
[1] = test system: MDA-MB-468 breast
[2] = test system: COLO 205 colon
[3] = test system: NCI-H226 lung
[4] = test system: A498 renal
[5] = test system: HCC-2998 colon
[6] = test system: LOX IMVI melanoma
[7] = test system: 786-0 renal
[8] = test system: HCT-116 colon
[9] = test system: SR leukemia
[10] = test system: OVCAR-3 ovarian
[11] = test system: SF-295 CNS
[12] = test system: UACC-62 melanoma
[13] = test system: SF-539 CNS
[14] = test system: SK-MEL-28 melanoma
[15] = test system: HL-60(TB) leukemia
[16] = test system: MDA-MB-435
[17] = test system: U251 CNS
[18] = test system: OVCAR-5 ovarian
[19] = test system: SW-620 colon
[20] = test system: EKVX NSCLC
[21] = test system: SF-268 CNS
[22] = test system: CCRF-CEM leukemia
[23] = test system: IGROV1 ovarian
[24] = test system: NCI-H522 lung
[25] = test system: HOP-62 NSCLC
[26] = test system: HOP-92 NSCLC
[27] = test system: PC-3 prostate
[28] = test system: HCT-15 colon
[29] = test system: NCI-H23 lung
[30] = test system: OVCAR-4 ovarian
[31] = test system: KM12 colon
[32] = test system: T-47D breast
[33] = test system: NCI-H460 lung
[34] = test system: CAKI-1 renal
[35] = test system: TK-10 renal
[36] = test system: K-562 leukemia
[37] = test system: OVCAR-8 ovarian
[38] = test system: NCI/ADR-RES ovarian
[39] = test system: UACC-257 melanoma
[40] = test system: HS 578T breast
[41] = test system: MALME-3M melanoma
[42] = test system: A549 NSCLC
[43] = test system: BT-549 breast
[44] = test system: SNB-19 CNS
[45] = test system: RPMI-8226 leukemia
[46] = test system: SN12C renal
[47] = test system: SK-OV-3 ovarian
[48] = test system: ACHN renal
[49] = test system: MOLT-4 leukemia
[50] = test system: HT29 colon
[51] = test system: DU-145 prostate
[52] = test system: M14 melanoma
[53] = test system: MCF7 breast
[54] = test system: SK-MEL-5 melanoma
[55] = test system: RXF 393 renal

Which GI50 [1] does the source give for `CN1C(=O)c2cc(Cl)nc3c(NC(=O)c4cccc(Cl)c4)c(Cl)c(NC(=O)c4cccc(Cl)c4)c1c23` here?
The GI50 was 1.99 µM.

What about the TGI [1] of the same compound?
The TGI was 6.05 µM.

`COc1cccc(-c2nn(-c3ccccc3)cc2-c2ccnc(NCCNC(=O)Nc3ccc(Cl)c(Cl)c3)c2)c1` was tested. Which GI50 [1] did it give?
The GI50 was 1.7 µM.

And the TGI [1]?
Its TGI is 4.54 µM.

Which results are given for `CC1Cc2c(N(C)C)ncnc2N(C)c2ccc(Cl)cc21` (stereo not drawn)?
GI50 [1]: 2.66 µM; TGI [1]: 67.7 µM

What does the source list for `Oc1ccc(-c2nnc(SCc3ccc(O)c4ncccc34)o2)cc1`?
GI50 [1]: 2 µM; TGI [1]: 8.06 µM

With `O=C1Nc2ccc(Cl)cc2/C1=C/c1cccc(OCc2ccccn2)c1` as the compound, how does the GI50 [2] read?
Its GI50 is 17.5 µM.

What about the TGI [2] of the same compound?
The TGI was 33 µM.

And the GI50 [3]?
Its GI50 is 16.3 µM.

And the TGI [3]?
Its TGI is 38.5 µM.

What about the GI50 [1] of the same compound?
Its GI50 is 11.9 µM.

And the TGI [1]?
Its TGI is 25.5 µM.

And the GI50 [4]?
The GI50 was 18.2 µM.

And the TGI [4]?
Its TGI is 32.7 µM.

And the GI50 [5]?
The GI50 was 17.8 µM.

And the TGI [5]?
Its TGI is 31.9 µM.

And the GI50 [6]?
The GI50 was 13.3 µM.

And the TGI [6]?
The TGI was 28.2 µM.

And the GI50 [7]?
The GI50 was 16.4 µM.

What about the TGI [7] of the same compound?
Its TGI is 31.1 µM.

And the GI50 [8]?
Its GI50 is 13 µM.

What about the TGI [8] of the same compound?
The TGI was 27.2 µM.

What about the GI50 [9] of the same compound?
Its GI50 is 13 µM.

And the TGI [9]?
The TGI was 41.9 µM.

And the GI50 [10]?
Its GI50 is 16.1 µM.

And the TGI [10]?
The TGI was 30.1 µM.

And the GI50 [11]?
Its GI50 is 15.5 µM.

What about the TGI [11] of the same compound?
The TGI was 29.1 µM.

What about the GI50 [12] of the same compound?
The GI50 was 11.9 µM.

What about the TGI [12] of the same compound?
Its TGI is 24.4 µM.

And the GI50 [13]?
The GI50 was 16 µM.

What about the TGI [13] of the same compound?
Its TGI is 29.5 µM.

And the GI50 [14]?
The GI50 was 16.8 µM.

And the TGI [14]?
Its TGI is 30.5 µM.

And the GI50 [15]?
Its GI50 is 19.2 µM.

And the TGI [15]?
The TGI was 52.5 µM.

What about the GI50 [16] of the same compound?
Its GI50 is 18.4 µM.

And the TGI [16]?
Its TGI is 36 µM.

And the GI50 [17]?
The GI50 was 14.6 µM.

And the TGI [17]?
The TGI was 28.9 µM.

And the GI50 [18]?
The GI50 was 15.9 µM.

And the TGI [18]?
The TGI was 30.4 µM.

What about the GI50 [19] of the same compound?
The GI50 was 17.5 µM.

And the TGI [19]?
Its TGI is 34.3 µM.

And the GI50 [20]?
The GI50 was 8.43 µM.

What about the TGI [20] of the same compound?
Its TGI is 21.1 µM.

What about the GI50 [21] of the same compound?
Its GI50 is 17.6 µM.

And the TGI [21]?
The TGI was 38.9 µM.

What about the GI50 [22] of the same compound?
Its GI50 is 30.6 µM.

And the TGI [22]?
Its TGI is > 100 µM.

And the GI50 [23]?
Its GI50 is 15.7 µM.

And the TGI [23]?
The TGI was 31.2 µM.

What about the GI50 [24] of the same compound?
The GI50 was 14.6 µM.

What about the TGI [24] of the same compound?
The TGI was 29.9 µM.

And the GI50 [25]?
The GI50 was 15.8 µM.

And the TGI [25]?
The TGI was 31.3 µM.

And the GI50 [26]?
The GI50 was 14.7 µM.

And the TGI [26]?
Its TGI is 46.2 µM.

What about the GI50 [27] of the same compound?
Its GI50 is 19.4 µM.

And the TGI [27]?
The TGI was 64.4 µM.

And the GI50 [28]?
The GI50 was 13.7 µM.

And the TGI [28]?
Its TGI is 30.3 µM.

What about the GI50 [29] of the same compound?
The GI50 was 14.5 µM.

And the TGI [29]?
The TGI was 28.1 µM.

And the GI50 [30]?
The GI50 was 18.3 µM.

And the TGI [30]?
Its TGI is 54.1 µM.

And the GI50 [31]?
The GI50 was 18.1 µM.

What about the TGI [31] of the same compound?
Its TGI is 33.8 µM.

And the GI50 [32]?
Its GI50 is 13.4 µM.

And the TGI [32]?
Its TGI is 30.6 µM.

What about the GI50 [33] of the same compound?
The GI50 was 18 µM.

And the TGI [33]?
The TGI was 34.5 µM.

And the GI50 [34]?
The GI50 was 15.3 µM.

And the TGI [34]?
Its TGI is 32 µM.

What about the GI50 [35] of the same compound?
Its GI50 is 18.7 µM.

And the TGI [35]?
Its TGI is 33.5 µM.

What about the GI50 [36] of the same compound?
Its GI50 is 19 µM.

And the TGI [36]?
Its TGI is > 100 µM.

And the GI50 [37]?
The GI50 was 15.4 µM.

What about the TGI [37] of the same compound?
The TGI was 30.3 µM.

What about the GI50 [38] of the same compound?
Its GI50 is 14.2 µM.

And the TGI [38]?
The TGI was 34 µM.

And the GI50 [39]?
The GI50 was 15.2 µM.

What about the TGI [39] of the same compound?
Its TGI is 28.7 µM.

And the GI50 [40]?
The GI50 was 17.7 µM.

And the TGI [40]?
The TGI was 45.7 µM.

And the GI50 [41]?
Its GI50 is 15.4 µM.

And the TGI [41]?
The TGI was 29 µM.

What about the GI50 [42] of the same compound?
Its GI50 is 17.8 µM.

And the TGI [42]?
Its TGI is 38.2 µM.

What about the GI50 [43] of the same compound?
The GI50 was 14.1 µM.

And the TGI [43]?
Its TGI is 27.7 µM.

What about the GI50 [44] of the same compound?
The GI50 was 15.7 µM.

And the TGI [44]?
The TGI was 29.3 µM.

And the GI50 [45]?
The GI50 was 20 µM.

And the TGI [45]?
The TGI was > 100 µM.

And the GI50 [46]?
The GI50 was 15.3 µM.

And the TGI [46]?
The TGI was 28.9 µM.

And the GI50 [47]?
Its GI50 is 20.2 µM.

What about the TGI [47] of the same compound?
Its TGI is 47 µM.

What about the GI50 [48] of the same compound?
The GI50 was 15 µM.

What about the TGI [48] of the same compound?
The TGI was 30 µM.

What about the GI50 [49] of the same compound?
Its GI50 is 12.4 µM.

And the TGI [49]?
The TGI was 36.8 µM.

What about the GI50 [50] of the same compound?
Its GI50 is 17.4 µM.

What about the TGI [50] of the same compound?
Its TGI is 32.8 µM.

And the GI50 [51]?
The GI50 was 17.8 µM.

What about the TGI [51] of the same compound?
Its TGI is 31.8 µM.

And the GI50 [52]?
The GI50 was 16.3 µM.

What about the TGI [52] of the same compound?
Its TGI is 31.2 µM.

And the GI50 [53]?
Its GI50 is 7.15 µM.

What about the TGI [53] of the same compound?
The TGI was 20.7 µM.

What about the GI50 [54] of the same compound?
The GI50 was 17 µM.

What about the TGI [54] of the same compound?
Its TGI is 30.7 µM.

And the GI50 [55]?
Its GI50 is 11.9 µM.

What about the TGI [55] of the same compound?
The TGI was 24.5 µM.
